These results are taken from patent US5549910A, “Preparation of liposome and lipid complex compositions” (priority 1994, dated 1996).

Where a name gives a salt, the structure may show the parent alone. Read-outs that look alike come from different tables or passages of the source.

Data set [1] is described as follows: Solubility and solution stability. It counts as physicochemical. Here is the method:
Solutions of the polyene antibiotics amphotericin B (30 mM) and nystatin (50 mM) were prepared in DMSO. The primaricin aqueous suspension obtained from Sigma was lyophilized and resuspended in various solvents. […] The polyene antibiotics were combined with the various lipids in a solvent mixture of DMSO, DMSO:MP or DMSO:EtOH (7:3) and then injected into the aqueous phase. The preparations formed were transferred to a dialysis bag and dialyzed versus 100 volumes of distilled water, changed twice unless otherwise indicated. The ratio of the components, exact solvent mixtures and other conditions are given in the results. Samples of the preparations were dissolved in methanol and the polyene concentration determined spectrophotometrically (Szoka et al., supra): amphotericin B at 406 nm, nystatin at 306 nm and primaricin at 318 nm.

For data set [2], the system named is A. fumigatus. The data set can be described thus: Immunosuppressive neutropenic rabbit model of invasive aspergillosis, organ cultures. It counts as in vivo, A. fumigatus (in rabbits). The settings on record: 30 days; Free AmpB 4.5 mg/Kg/day; Lipidic-AmpB 6-9 mg/Kg/day.
From the text: At the end of the treatment period, the animals were sacrificed, and the liver, kidneys, lung, and brain examined for viable Aspergillis by culturing the organs.
Data set [3] can be described thus: Acute mortality (death within 24 hours of drug administration) in immunosuppressed rabbits challenged with A. fumigatus. It counts as in vivo, rabbit. The settings on record: animals dead/total. Here is the method: Liposomes were prepared with amphotericin B and cholesterol sulfate as described in Example 3. An immunosuppressive neutropenic rabbit model of invasive aspergillosis was used to compare the lipidic particle formulation with free amphotericin B.
Twenty-eight rabbits were immunosuppressed by administration of cyclophosphamide and triamcinolone. The rabbits were then challenged with 10^6 A. fumigatus. After 24 hours, the rabbits were divided into three treatment groups: eight rabbits received 4.5 mg/Kg/day free amphotericin B; four rabbits received 7.5 mg/Kg/day free amphotericin B; five rabbits received 6-9 mg/Kg/day amphotericin B lipidic particles (equivalent to 3-4.5 mg/Kg/day amphotericin B); three rabbits received 15 mg/Kg/day amphotericin B lipidic particles (equivalent to 7.5 mg/Kg/day amphotericin B); and eight rabbits were controls.
Treatment was continued for 30 days for the 4.5 mg/Kg free amphotericin B and 6-9 mg/Kg lipidic particle treatment groups.

The conditions of data set [4]: pH 7.4; cited from earlier work.

In the case of `CC(C)CCC[C@@H](C)[C@H]1CC[C@H]2[C@@H]3CC=C4C[C@@H](OC(=O)CCC(=O)O)CC[C@]4(C)[C@H]3CC[C@]12C` [Chems, cholesterol hemisuccinate], the “solubility in DMSO” value in data set [1] is listed as “soluble”.
As to `CC(C)CCC[C@@H](C)[C@H]1CC[C@H]2[C@@H]3CC=C4C[C@@H](OS(=O)(=O)O)CC[C@]4(C)[C@H]3CC[C@]12C` [CholSO4, cholesterol sulfate], the “solubility in DMSO” value in data set [1] (DMSO) is reported as “soluble”.
Consider `CC(C)CCC[C@@H](C)[C@H]1CC[C@H]2[C@@H]3CC=C4C[C@@H](O)CC[C@]4(C)[C@H]3CC[C@]12C` [Cholesterol], for which the “solubility in 1-methyl-2-pyrrolidinone” value in data set [1] (1-methyl-2-pyrrolidinone) is given as “exceedingly soluble”.
Consider `CC1/C=C/C=C/C=C/C=C/C=C/C=C/C=C/C(OC2OC(C)C(O)C(N)C2O)CC2OC(O)(CC(O)CC(O)C(O)CCC(O)CC(O)CC(=O)OC(C)C(C)C1O)CC(O)C2C(=O)O` (stereo not shown) [Free AmpB], for which, in data set [2], the “Organ Cultures (No. Sterile/Total), Kidney” value is given as 5/5; the “Organ Cultures (No. Sterile/Total), Liver” value is recorded as 5/5; the “Organ Cultures (No. Sterile/Total), Lung” value is 3/5. In addition, the “Acute mortality (death within 24 hours)” value in data set [3] (4.5 mg/Kg) is listed as 3/8. For the same compound, the “Acute mortality (death within 24 hours)” value in data set [3] (7.5 mg/Kg) was 4/4.
`CC1C/C=C/C=C/C=C/C=C/C(OC2OC(C)C(O)C(N)C2O)CC2OC(O)(CC(O)CC3OC3/C=C/C(=O)O1)CC(O)C2C(=O)O` (stereo not shown) [Primaricin]: in data set [1], the “solubility in DMSO” value was “very soluble” and the “stability of solution in DMSO:MP” value is recorded as “stable yellow solution”.
For `COc1cccc2c1C(=O)c1c(O)c3c(c(O)c1C2=O)C[C@@](O)(C(=O)CO)C[C@@H]3O[C@H]1C[C@H](N)[C@H](O)[C@H](C)O1` [doxorubicin], in data set [4], the aqueous solubility entry was “low aqueous solubility”. For the same compound, in data set [1] (DMSO), the “solubility in DMSO” value was “very soluble”.
Consider cis-platinum, for which, in data set [1] (DMSO), the “solubility in DMSO” value is on record as “exceedingly soluble”.
